Reference: paper PMC7815716, “Mechanistic basis of breast cancer resistance protein inhibition by new indeno[1,2-b]indoles” (Scientific Reports, 2021)
Several values for one entry are separate records, joined by “and”; a condition that tells them apart may be missing. Equal values may be shown once. Read-outs that look alike come from different tables or passages of the source.

Assays:
[1] = Intrinsic cytotoxicity of compounds, MTT assay; assay type: cell-based, human; conditions: human, HEK293 WT and HEK293-ABCG2 cells, MTT, read-out: IG50 (µM) ± SD, cytotoxicity (half-maximal cell viability)
Procedure: (§1) Cell viability was evaluated with a 3-(4,5-dimethylthiazol-2-yl)-2,5-diphenyltetrazolium bromide (MTT) colorimetric assay. HEK293 WT and HEK293-ABCG2 cells were seeded into 96-well culture plates at a 1.5 × 10^4 cells/well density. After overnight incubation, the cells were treated with various concentrations of compounds (0–100 µM) for 72 h at 37 °C under 5% CO2. […] Sensitization experiments were also carried out on H460 and H460MX20 cells. For these experiments, H460 and H460MX20 cells were seeded into 96-well culture plates at 1.0 × 10^4 cells/well density. […] After the treatment, the culture medium was removed and 100 μL of a 0.5 mg.mL^−1 MTT solution was added. Cells were then incubated for 4 h at 37 °C under 5% CO2. The formazan crystals were dissolved with a solution of DMSO/ethanol (1:1) and the absorbance was measured at 570 nm using a Multiscan FC microplate reader (Thermo Scientific). The results were expressed as percentage of viable cells versus control cells (0.1% DMSO, v/v) taken as 100%.

ABCG2 [2] = target: T1, ABCG2 (Homo sapiens, UniProt Q9UNQ0); assay: Inhibition of ABCG2-mediated mitoxantrone efflux (flow cytometry); assay type: cell-based; parameters: expressed in transfected cells; host or cells: HEK293; conditions: for inhibition at 30 min: human, probe mitoxantrone (10 µM), from IC50 fitted curves, HEK293-ABCG2, mitoxantrone, 100% = Ko143 0.5 µM, read-out: IMAX (%) ± SD, maximal inhibition percentage; for TR, therapeutic ratio (IG50/IC50): ratio between IG50 and IC50 values
T1 sequence (Q9UNQ0 1-655): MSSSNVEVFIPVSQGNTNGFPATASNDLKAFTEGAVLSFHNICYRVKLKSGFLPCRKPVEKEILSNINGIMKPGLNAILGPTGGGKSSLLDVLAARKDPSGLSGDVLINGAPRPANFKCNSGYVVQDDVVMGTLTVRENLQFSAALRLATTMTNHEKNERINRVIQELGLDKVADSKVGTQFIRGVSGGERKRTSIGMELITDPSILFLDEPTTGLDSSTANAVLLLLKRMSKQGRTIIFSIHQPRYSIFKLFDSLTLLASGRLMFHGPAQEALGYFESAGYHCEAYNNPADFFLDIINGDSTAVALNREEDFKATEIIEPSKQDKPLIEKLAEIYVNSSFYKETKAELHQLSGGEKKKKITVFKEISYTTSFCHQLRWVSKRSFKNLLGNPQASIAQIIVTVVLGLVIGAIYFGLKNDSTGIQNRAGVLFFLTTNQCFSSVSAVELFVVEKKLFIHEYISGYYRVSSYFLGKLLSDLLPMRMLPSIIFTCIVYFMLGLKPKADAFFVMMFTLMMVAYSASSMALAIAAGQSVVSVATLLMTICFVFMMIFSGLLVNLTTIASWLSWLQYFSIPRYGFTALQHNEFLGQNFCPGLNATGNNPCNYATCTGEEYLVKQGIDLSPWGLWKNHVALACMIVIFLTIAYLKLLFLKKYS
Procedure: ABCG2 inhibition assays were carried out on HEK293 WT and HEK293-ABCG2 cells. Cells were seeded at the density of 1 × 10^5 cells/well in 24 well culture plates and incubated for 48 h at 37 °C under 5% CO2. Cells were treated with compounds and 10 μM of mitoxantrone for 30 min at 37 °C and 5% CO2. After incubation the cells were washed with PBS, trypsinized and resuspended in ice cold PBS. The intracellular drug fluorescence was monitored with a FACS Calibur cytometer (Becton Dickinson) using the FL4 channel, with at least 10,000 events collected. The maximal fluorescence (taken as 100%) was determined with the difference between the mean fluorescence of HEK-ABCG2 cells incubated with 0.5 μM Ko143 (ABCG2 reference inhibitor) or by using the HEK293 WT cell line as a control and cells without inhibitor (mitoxantrone alone). The percent of inhibition was determined as previously described. For bimodulation assays the cells were concomitantly treated with 10 μM of one or two combined inhibitors under similar conditions as described previously. For washing assays, cells were treated with 10 μM concentrations of compounds for 30 min. Then, the medium with the inhibitor was removed and the cells were washed with PBS and incubated only with culture medium for different periods of time (0.5 and 3 h). After incubation, cells were exposed to 5 µM mitoxantrone for 30 min, and then analyzed by flow cytometry. The percentage of transport inhibition was calculated by the following equation: %Inhibition=C-S/I-S×100 where “C” corresponds to the intracellular fluorescence of cells in the presence of the tested compounds and substrate (mitoxantrone to ABCG2, Rhodamine 123 to ABCB1 and calcein to ABCC1), “S” corresponds to the intracellular fluorescence of cells in the presence of substrate alone, and “I” corresponds to the intracellular fluorescence of cells in the presence of the substrate and reference inhibitor (Ko143 to ABCG2, GF120918 to ABCB1 and verapamil to ABCC1).

ABCG2 [3] = tested on: ABCG2; parameters: method as in PMID 15930306; conditions: cited from earlier work
ABCG2 [4] = conditions: cited from earlier work
HEK293 WT cells = assay: SN-38 cytotoxicity in control cells, MTT assay; assay type: cell-based, human
Procedure: as §1

ABCG2 [5] = target: T1, ABCG2; conditions: previously published data, cited from earlier work
[6] = HEK293-ABCG2 cells, mitoxantrone 10 µM, 30 min, read-out: IC50 (µM) ± SD, inhibition of ABCG2-mediated mitoxantrone efflux

SMILES: COc1ccccc1CCn1c2c(c3c1-c1cccc(O)c1C3=O)C(=O)CC(C)C2 (centres unmarked) [5i, 1-Hydroxy-7-methyl-5-(2-methoxyphenethyl)-5,6,7,8-tetrahydroindeno[1,2-b]indole-9,10-dione]
- IC50 at 72 h [1]: 20 µM
- IC50 (ABCG2 [2]; [6]): 0.07 ± 0.02 µM
- inhibition at 30 min (ABCG2 [2]; HEK293-ABCG2 cells): 62.83 ± 0.48%
- TR, therapeutic ratio (IG50/IC50) (ABCG2 [2]): 293.66

SMILES: COc1ccccc1CCn1c2c(c3c1-c1cccc(OCC=C(C)C)c1C3=O)C(=O)CCC2 [5j, 5-(2-Methoxyphenethyl)-1-(3-methylbut-2-enyloxy)-5,6,7,8-tetrahydroindeno[1,2-b]indole-9,10-dione]
- melting point: 118 °C
- IC50 (ABCG2 [2]; [6]): 0.48 ± 0.08 µM
- inhibition at 30 min (ABCG2 [2]; HEK293-ABCG2 cells): 85.6 ± 2.59%
- TR, therapeutic ratio (IG50/IC50) (ABCG2 [2]): 32.86

SMILES: CC(C)=CCc1c(O)cc2oc(-c3ccccc3)cc(=O)c2c1O [6-prenylchrysin]
- Maximal inhibition of ABCG2 (ABCG2 [3]): approximately 70%

SMILES: COc1cc2c(cc1OC)-c1c(c3c(O)cc(C)cc3n1CCc1ccccc1)C2=O [6e, 9-Hydroxy-2,3-dimethoxy-7-methyl-5-phenethylindeno[1,2-b]indol-10(5H)-one]
- melting point: 198 °C
- IC50 (ABCG2 [2]): 0.2 ± 0.04 µM
- inhibition at 30 min (ABCG2 [2]; HEK293-ABCG2 cells): 66.8 ± 1.79%
- TR, therapeutic ratio (IG50/IC50) (ABCG2 [2]): 212.38

SMILES: COc1ccc2c3c([nH]c2c1)[C@H](CC(C)C)N1C(=O)[C@H](CCC(=O)OC(C)(C)C)NC(=O)[C@@H]1C3 [Ko143]
- Effect on the ATPase activity of ABCG2 (ABCG2 [4]): inhibit the ATPase activity

SMILES: CCc1c2c(nc3ccc(O)cc13)-c1cc3c(c(=O)n1C2)COC(=O)[C@]3(O)CC [SN-38]
- FR, fold reversal (HEK293 WT cells; SN-38 alone (reference)): 1.00
- IC50 (HEK293 WT cells; SN-38 alone, 72 h, read-out: IG50 (SN-38 nM ± SD)): 0.00824 µM and 0.00753 µM and 0.01 µM and 0.00758 µM

SMILES: O=C1c2c(O)ccc(O)c2C(=O)c2c(NCCNCCO)ccc(NCCNCCO)c21 [mitoxantrone]
- Stimulation of the ATPase activity of ABCG2 (ABCG2 [4]): 40%

SMILES: CC1CC(=O)c2c3c(n(CCc4ccccc4)c2C1)-c1ccccc1C3=O (centres unmarked) [p4h]
- TR, therapeutic ratio (IG50/IC50) (ABCG2 [5]): > 435.00

SMILES: COc1ccccc1CCn1c2c(c3c1-c1ccccc1C3=O)C(=O)CCC2 [p4j]
- TR, therapeutic ratio (IG50/IC50) (ABCG2 [5]): 130.00

SMILES: COc1cccc(CCn2c3c(c4c2-c2ccccc2C4=O)C(=O)CCC3)c1 [p4k]
- TR, therapeutic ratio (IG50/IC50) (ABCG2 [5]): 41.00

SMILES: Cc1cc(O)c2c3c(n(CCc4ccccc4)c2c1)-c1ccccc1C3=O [p5h]
- TR, therapeutic ratio (IG50/IC50) (ABCG2 [5]): 360.00
- IC50 (ABCG2 [5]; read-out: IC50 (µM) ± SD, inhibition of ABCG2-mediated mitoxantrone efflux): 0.15 ± 0.01 µM

SMILES: COc1cc2nc(N3CCN(C(=O)c4ccco4)CC3)nc(N)c2cc1OC [prazosin]
- Stimulation of the ATPase activity of ABCG2 (ABCG2 [4]): 100%
